From patent publication US20100204263A1, “METHOD OF TREATING MULTIDRUG RESISTANT CANCERS” (priority 2007, published 2010)
Like-named read-outs stand apart in the source and are kept apart here.

Legend:
[1] = test system: K562 (human leukemia) cell lines and a K562 cell line selected for resistance to daunorubicin; assay: MTS cell proliferation assay, K562 and K562 resistant cell lines; format: cell-based
Source text: MTS assay is an assay in which the bioreduction of the MTS reagent (3-(4,5-dimethylthiazol-2-yl)-5-(3-carboxymethoxyphenyl)-2-(4-sulfophenyl)-2H-tetrazolium)) by cells is being measured to assess metabolic activity of cells is based on the ability of a mitochondrial dehydrogenase enzyme from viable cells to cleave the tetrazolium rings of the MTS and form formazan crystals which are largely impermeable to cell membranes, thus resulting in its accumulation within healthy cells. Solubilization of the cells by the addition of a detergent results in the liberation of the crystals which are solubilized. The number of surviving cells is directly proportional to the level of the formazan product created. The color can then be quantified using a simple colorimetric assay. The results can be read on a multiwell scanning spectrophotometer (ELISA reader).

[2] = test system: IGROV1 (human ovarian) cell line; assay: SRB cell proliferation assay, IGROV1; format: cell-based
Procedure: (§1) The T8 resistant cell line has been characterized with over-expression of the multidrug resistant protein BCRP (breast cancer resistance protein). Topotecan, which is a known substrate for BCRP, was used as a control.
(§2) Sulforhodamine-B (SRB) assay is performed to assess cell survival. SRB is a water-soluble dye that binds to the basic amino acids of the cellular proteins. Thus, colorimetric measurement of the bound dye provides an estimate of the total protein mass that is related to the cell number. The color can then be quantified using a simple colorimetric assay. The results can be read on a multiwell scanning spectrophotometer (ELISA reader).

[3] = test system: HL60 (human promyelocytic leukemia) cells; assay: WST-1 cell proliferation assay, HL60; format: cell-based; settings: HL-60, wild-type HL60, WST-1, read-out: IC50 HL60
Procedure: (§3) The HL60NCR resistant cell line has been characterized with over-expression of the multidrug resistant protein (MDR; p-glycoprotein). The over-expression ratio (level of MDR in resistant cell line over level of MDR in the parental cell line) is 8 fold with a 10 fold increase in pgp function. Pgp surface expression was measured by flow cytometry with the MRK16 antibody and Pgp function with the generic substrate, Rh123.
(§4) WST-1 is a water-soluble tetrazolium salt that can be used for cell proliferation or cell viability assays. The rate of WST-1 cleavage by mitochondrial dehydrogenases correlates with the number of viable cells in the culture. WST-1 is added directly to the cells ( 1/10th of the culture volume) and absorbance at 450 nm can be measured using an ELISA plate reader following a short incubation at 37° C.

[4] = test system: Pgp, MRP-1 or BCRP; assay: Resistance Ratios in three pairs of parental and resistant cell lines; format: cell-based, human; settings: IC50 resistant / IC50 parental; HL60-HL60VCR, HL60-HL60ADR, 8226-8226/MR20
Procedure: The Resistance Ratios were calculated as IC50 of the resistant cell line/IC50 of the parental cell line.

[5] = test system: Pgp, MRP-1 or BCRP; assay: Resistance Modifying Factors in three pairs of parental and resistant cell lines; format: cell-based, human; settings: IC50 resistant without modulator / with modulator
Procedure: The Resistance Modifying Factors were calculated as IC50 of the resistant cell line in the absence of modulator/IC50 of the resistant cell line in the presence of modulator.

[6] = test system: K562-K562/DOX cells (Pgp negative and Pgp positive); assay: Drug accumulation assay, amonafide retention in K562 and K562/DOX; format: cell-based, human
Procedure: Functional expression analyses of Pgp were performed on a BD FACSCalibur flow cytometer (Franklin Lakes, N.J.). […] Data analysis was performed using the Dako Cytomation Summit software, version 4.0 (Fort Collins, Colo.). […] Differential Pgp staining of anti-Pgp treated cells was compared to that of control cells counted with the same number of gated events. All test samples were compared to their respective controls using Kolmogorov-Smirnov (KS) non-parametric statistics and expressed as D-values ranging from 0 to 1. These analyses were performed using the NCSS 2007 software (Kaysville, Utah). This approach addresses the maximum difference between two empirical distribution functions.

[7] = test system: HL60 cells (Pgp negative); assay: Drug accumulation assay, HL60; format: cell-based, human; settings: HL60, increasing concentrations of amonafide
Procedure: (§5) Functional expression analyses of Pgp were performed on a BD FACSCalibur flow cytometer (Franklin Lakes, N.J.). […] Data analysis was performed using the Dako Cytomation Summit software, version 4.0 (Fort Collins, Colo.).

[8] = test system: HL60/VCR cells (Pgp positive); assay: Drug accumulation assay, HL60/VCR; format: cell-based, human
Procedure: as §5

[9] = test system: HL60/ADR cells (MRP-1 positive); assay: Drug accumulation assay, HL60/ADR; format: cell-based, human
Procedure: Following uptake, the cells were washed with PBS and resuspended in fresh medium. An aliquot of cells from each sample was placed on ice for quantitation of baseline drug uptake. The remaining cells were incubated further and then resuspended in chilled fresh medium, and placed on ice for immediate flow cytometric analysis.
Functional expression analyses of MRP-1 were performed on a BD FACSCalibur flow cytometer (Franklin Lakes, N.J.). Cellular amonafide content was measured on the Cytopeia Influx flow cytometer (Seattle, Wash.). Data analysis was performed using the Dako Cytomation Summit software, version 4.0 (Fort Collins, Colo.).

[10] = test system: 8226/MR20 cells (BCRP positive); assay: Drug accumulation assay, 8226/MR20; format: cell-based, human; settings: 8226/MR20 ± FTC
Procedure: Functional expression analyses of BCRP were performed on a BD FACSCalibur flow cytometer (Franklin Lakes, N.J.). […] Data analysis was performed using the Dako Cytomation Summit software, version 4.0 (Fort Collins, Colo.).

[11] = test system: pretreatment secondary AML patient cells; assay: Amonafide and daunorubicin efflux in cryopreserved cells of patients treated with amonafide+cytarabine; format: cell-based, human; settings: cells from 15 patients treated with amonafide+cytarabine
Procedure: Cryopreserved cells were tested for viability and samples with viabilities less than 40% were considered inevaluable and discarded.
To measure drug uptake, the substrates were incubated with cells in medium containing each drug alone, or in combination with the modulator at the desired final concentrations. Cells were then washed and resuspended in PBS, and placed on ice. Drug-associated fluorescence was measured by flow cytometry using a FacScan flow cytometer (Becton Dickinson Immunocytometry Systems, San Jose, Calif.) equipped in standard fashion with an Argon laser for 488 nm excitation and a 585/42 band-pass filter (FL2) or a 670 long-pass (FL3) filter for emission collection. Data were analyzed with WinList software (Verity Software House, Topsham, Me.).

[12] = test system: P388 (murine leukemia) cell lines and a P388 cell line selected for resistance to doxorubicin; settings: MTT
Source text: The P388 resistant cell line has been characterized with over-expression of the multidrug resistant protein (MDR; p-glycoprotein).
MTT [3-(4,5-dimethylthiazol-2-yl)-2,5-diphenyltetrazolium bromide] assay, first described by Mosmann in 1983, is based on the ability of a mitochondrial dehydrogenase enzyme from viable cells to cleave the tetrazolium rings of the pale yellow MTT and form a dark blue formazan crystals which is largely impermeable to cell membranes, thus resulting in its accumulation within healthy cells. Solubilization of the cells by the addition of a detergent results in the liberation of the crystals which are solubilized. The number of surviving cells is directly proportional to the level of the formazan product created. The color can then be quantified using a simple colorimetric assay. The results can be read on a multiwell scanning spectrophotometer (ELISA reader).

[13] = test system: MCF7 (human breast cancer) cell lines and a MCF7 cell line selected for resistance to doxorubicin; settings: clonogenic
Procedure: The MCF7 resistant cell line has been characterized with over-expression of the multidrug resistant protein (MDR; p-glycoprotein).
In the clonogenic assay cells are treated in vitro and then suspended in a soft agar/cell media mixture. The cells are allowed to grow in definable and distinct clumps of cells, referred to as clones, based upon the survival of the cells originally treated. After a defined time span the number of clones is then counted by microscope.

[14] = test system: Caco-2 cell monolayers; settings: human, Caco-2, 120 min, 5 μM
Procedure: (§6) Caco-2 cell permeability studies were performed using Caco-2 cell monolayers grown on microporous membranes in multiwell insert systems. […] The samples were analyzed using LC/MS detection. […] This is the slope of the basolateral concentration versus time curve divided by the concentration of compound in the apical dosing chamber and the total area of the Caco-2 cell monolayer.

[15] = test system: MDR1-MDCK cells (P-gp)
Procedure: (§7) MDR1-MDCK are Madin Darby Canine Kidney cells transfected with the human multi-drug resistance gene. Confluent monolayers made from these cells can be used to access a test compound's potential role as a P-gp substrate. The assay set up is similar to the CaCo-2 assay.
(§8) The samples were analyzed using LC/MS detection.

[16] = target: T1, Pgp (Homo sapiens, UniProt P08183)
Source text: (§9) Both the Caco-2 and MDR1-MDCK cells were used for this model.

[17] = target: T1, Pgp; settings: digoxin + test compound
Source text: as §7, §9

[18] = test system: IGROV1-T8, a cell line selected for resistance to topotecan (increased BCRP expression); assay: cells; settings: Homo sapiens
Procedure: as §1, §2

[19] = test system: P-gp; assay: in vitro; settings: human
Procedure: as §6

[20] = test system: P-gp; assay: in vitro; settings: human, MDCK-MDR1, efflux/influx ratio, Drug alone
Procedure: as §7, §8

[21] = test system: Caco-2 cell monolayers; assay: Caco-2 cell monolayer permeability
Procedure: as §6

[22] = test system: HL60/VCR (HL60/MDR), a cell line selected for resistance to vincristine; assay: WST-1 cell proliferation assay, HL60/VCR
Procedure: as §3, §4

[23] = test system: HL60/ADR, a cell line selected for resistance to adriamycin (MRP-1); assay: WST-1 cell proliferation assay, HL60/ADR
Procedure: The HL60/ADR resistant cell line has been characterized with over-expression of the multidrug resistant protein (MRP-1).
as §4

[24] = test system: 8226/MR20, a cell line selected for resistance to mitoxantrone (BCRP); assay: WST-1 cell proliferation assay, 8226/MR20
Procedure: The 8226/MR20 resistant cell line has been characterized with over-expression of the multidrug resistant protein (BCRP).
BCRP surface expression was measured by flow cytometry with the BXP21 antibody.
as §4

T1 sequence (P08183 whole entry): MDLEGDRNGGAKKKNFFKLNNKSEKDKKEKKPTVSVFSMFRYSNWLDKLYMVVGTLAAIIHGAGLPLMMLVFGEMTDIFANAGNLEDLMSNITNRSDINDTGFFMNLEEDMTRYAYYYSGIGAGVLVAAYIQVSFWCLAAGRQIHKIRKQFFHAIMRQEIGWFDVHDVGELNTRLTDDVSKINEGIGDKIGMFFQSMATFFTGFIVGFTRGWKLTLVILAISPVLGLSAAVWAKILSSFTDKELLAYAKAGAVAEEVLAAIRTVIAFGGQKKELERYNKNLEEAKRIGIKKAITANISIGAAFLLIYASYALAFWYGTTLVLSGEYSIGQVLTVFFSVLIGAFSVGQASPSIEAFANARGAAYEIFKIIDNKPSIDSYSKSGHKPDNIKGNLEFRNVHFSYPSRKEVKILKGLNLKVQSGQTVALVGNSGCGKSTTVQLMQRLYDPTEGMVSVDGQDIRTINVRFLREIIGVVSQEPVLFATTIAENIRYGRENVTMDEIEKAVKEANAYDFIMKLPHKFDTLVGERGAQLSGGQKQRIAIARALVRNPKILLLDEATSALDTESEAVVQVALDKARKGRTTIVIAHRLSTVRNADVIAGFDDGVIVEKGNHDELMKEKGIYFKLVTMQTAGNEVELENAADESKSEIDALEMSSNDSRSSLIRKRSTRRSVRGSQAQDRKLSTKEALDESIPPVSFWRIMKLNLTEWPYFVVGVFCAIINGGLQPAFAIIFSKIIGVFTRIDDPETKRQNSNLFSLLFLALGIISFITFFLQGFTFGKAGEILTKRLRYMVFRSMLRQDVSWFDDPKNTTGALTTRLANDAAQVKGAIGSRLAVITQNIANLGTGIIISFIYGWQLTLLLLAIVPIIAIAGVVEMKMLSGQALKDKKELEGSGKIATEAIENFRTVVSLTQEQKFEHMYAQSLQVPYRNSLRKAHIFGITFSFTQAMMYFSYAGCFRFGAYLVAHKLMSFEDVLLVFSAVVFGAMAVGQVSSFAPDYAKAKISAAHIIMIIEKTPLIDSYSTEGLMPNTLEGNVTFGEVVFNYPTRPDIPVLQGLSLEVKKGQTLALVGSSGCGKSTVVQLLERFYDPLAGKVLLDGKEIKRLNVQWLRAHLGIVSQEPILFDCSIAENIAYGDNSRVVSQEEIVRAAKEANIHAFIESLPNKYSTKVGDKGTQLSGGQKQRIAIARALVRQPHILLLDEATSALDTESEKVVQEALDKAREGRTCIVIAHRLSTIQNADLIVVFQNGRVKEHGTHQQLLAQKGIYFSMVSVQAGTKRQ

Structure (SMILES): CN(C)CCN1C(=O)c2cccc3cc(N)cc(c23)C1=O [Amonafide, amonafide]
- potency in resistant vs non-resistant cell line [1]: equipotent in both cell lines
- IC50 ([2]; IGROV-1, IGROV1, average, read-out: IC50 (average)): 2930 nM
- IC50 ([2]; IGROV-1, IGROV1, experiment (1), read-out: IC50): 2540 nM
- IC50 ([2]; IGROV-1, IGROV1, experiment (2), read-out: IC50): 3730 nM
- IC50 ([2]; IGROV-1, IGROV1, experiment (3), read-out: IC50): 2530 nM
- IC50 [3]: 6.98 µM
- substrate status from Resistance Ratios [4]: not a substrate for Pgp, MRP-1 or BCRP
- substrate status from Resistance Modifying Factors [5]: not a substrate for Pgp, MRP-1 or BCRP
- Amonafide uptake and efflux, comparison of the two cell lines ([6]; K562 vs K562/DOX): not significantly different between the two cell lines
- amonafide content in presence of Pgp inhibitor PKC412 ([6]; each cell line ± PKC412): did not significantly change
- amonafide accumulation [7]: increases with increasing amonafide dose
- Amonafide uptake and efflux in presence of Pgp inhibitor PSC833 [8]: did not significantly change
- Amonafide uptake and efflux in presence of MRP-1 inhibitor MK571 [9]: did not significantly change
- Amonafide uptake and efflux in presence of BCRP inhibitor FTC [10]: did not significantly change
- drug efflux in relation to clinical response (CR vs non-CR) [11]: no significant difference
- potency in resistant vs non-resistant cell line [12]: equipotent in both cell lines
- potency in resistant vs non-resistant cell line [13]: equipotent in both cell lines
- efflux/influx ratio, Caco-2, Drug alone [14]: 0.9
- efflux/influx ratio, MDR1-MDCK, +CSA ([15]; +CSA): 1.2 ± 0.8
- efflux/influx ratio, MDR1-MDCK, Drug alone ([15]; Drug alone): 2.2
- effect of addition of CSA on efflux ([15]; MDR1-MDCK): did not have any effect
- Pgp substrate / inhibitor status (conclusion) ([15]; conclusion from Caco-2 and MDR1-MDCK studies): neither a substrate nor an inhibitor of Pgp
- effect on digoxin efflux ([16]; Caco-2): no effect
- % Inhib. of control, digoxin efflux, Caco-2 ([16]; digoxin + test compound): 0%
- % Inhib. of control, digoxin efflux, MDR1-MDCK [17]: 10%
- IC50 ([18]; T8, experiment (1)): 5.18 µM
- IC50 ([18]; T8, experiment (2)): 4.87 µM
- IC50 ([18]; T8, experiment (3)): 5.83 µM
- IC50 ([18]; read-out: IC50 (average), T8, average): 5.29 µM
- Papp B→A at 120 min, 5 μM ([19]; Caco-2): 26.8 ×10⁻⁶ cm/s
- efflux ratio at 120 min, 5 μM ([19]; Caco-2, efflux/influx ratio, Caco-2, +CSA): 1.1 ± 0.4
- efflux ratio at 120 min, 5 μM ([19]; Caco-2, efflux/influx ratio, Caco-2, Drug alone): 0.9 ± 0.2
- efflux ratio at 120 min, 5 μM ([19]; Caco-2, ratio of Papp(B-A)/Papp(A-B)): 1
- efflux ratio at 120 min, 5 μM [20]: 2.2 ± 0.8
- effect of addition of CSA on efflux ([21]; Caco-2): did not have any effect
- efflux classification ([21]; high efflux if ratio ≧3.0 and Papp(B-A) ≧1.0×10^−6 cm/s): not having significant efflux
- Fold Change in IC50 ([22]; HL60/MDR vs HL60): 0.29
- cytotoxicity in presence of Pgp inhibitor PSC833 ([22]; HL60/VCR ± PSC833): unaffected
- potency in both cell lines ([22]; HL60 vs HL60/VCR): equipotent in both cell lines
- IC50 ([22]; Homo sapiens, HL60/VCR, read-out: IC50 HL60/MDR): 2040 nM
- cytotoxicity in presence of MRP1 inhibitor MK571 ([23]; HL60/ADR ± MK571): unaffected
- potency in both cell lines ([23]; HL60 vs HL60/ADR): equipotent in both cell lines
- cytotoxicity in presence of BCRP inhibitor Fumitremorgin C ([24]; 8226/MR20 ± Fumitremorgin C): unaffected
- potency in both cell lines ([24]; 8226 vs 8226/MR20): equipotent in both cell lines
